From ChEMBL document CHEMBL5113427, “Bioevaluation of a dual PI3K/HDAC inhibitor for the treatment of diffuse large B-cell lymphoma” (Bioorg Med Chem Lett, 2022)
Activity calls are given as the source filed them. The rule behind the calls is not given here.

Tests used:
[1] = tested on: DOHH-2; assay: Induction of apoptosis in human DOHH-2 cells measured by flow cytometry analysis; format: functional, cell-based
[2] = biological target: T1, Histone deacetylase (Homo sapiens) (UniProt Q13547+O15379+Q9UBN7+Q92769+Q9UQL6+Q8WUI4+Q9BY41+Q96DB2+P56524+Q9UKV0+Q969S8); assay: Inhibition of HDAC in human DOHH-2 cells assessed as effect on pS6 levels at 10 uM measured by Western blot analysis; format: cell-based
[3] = tested on: DOHH-2; assay: Induction of cell cycle arrest in human DOHH-2 cells assessed as accumulation at G2/M phase measured by flow cytometry analysis; format: functional, cell-based
[4] = biological target: T1, Histone deacetylase (Homo sapiens); assay: Inhibition of HDAC in human OCILY3 cells assessed as Down-regulation of STAT3 phosphorylation at Y705 residue at 10 uM measured by Western blot analysis; format: cell-based
[5] = biological target: T1, Histone deacetylase (Homo sapiens); assay: Inhibition of HDAC in human DOHH-2 cells assessed as Down-regulation of STAT3 phosphorylation at Y705 residue at 10 uM measured by Western blot analysis; format: cell-based
[6] = biological target: T1, Histone deacetylase (Homo sapiens); assay: Inhibition of HDAC in human OCILY3 cells assessed as effect on pS6 levels at 10 uM measured by Western blot analysis; format: cell-based
[7] = tested on: OCI-Ly3; assay: Induction of apoptosis in human OCILY3 cells measured by flow cytometry analysis; format: functional, cell-based
[8] = tested on: DOHH-2; assay: Induction of cell cycle arrest in human DOHH-2 cells assessed as accumulation at S phase measured by flow cytometry analysis; format: functional, cell-based
[9] = tested on: U2932; assay: Antiproliferative activity against human U2932 cells measured after 4 days by Cell Titer Glo Luminescent Cell Viability Assay; format: functional, cell-based; details: U2932, 96 h
[10] = tested on: OCI-Ly3; assay: Induction of apoptosis in human OCILY3 cells assessed as upregulation of cleaved-PARP at 0.01 to 1 uM measured by Western blot analysis; format: functional, cell-based; details: dose 0.01-1 µM
[11] = tested on: DOHH-2; assay: Induction of apoptosis in human DOHH-2 cells at 0.01 to 1 uM measured by flow cytometry analysis; format: functional, cell-based; details: dose 0.01-1 µM, DDE = dose-dependent effect
[12] = tested on: Toledo; assay: Antiproliferative activity against human Toledo cells measured after 4 days by Cell Titer Glo Luminescent Cell Viability Assay; format: functional, cell-based; details: 96 h
[13] = tested on: DOHH-2; assay: Induction of apoptosis in human DOHH-2 cells assessed as upregulation of cleaved-PARP at 0.01 to 1 uM measured by Western blot analysis; format: functional, cell-based; details: dose 0.01-1 µM
[14] = biological target: Phosphatidylinositol 4,5-bisphosphate 3-kinase catalytic subunit alpha isoform (Homo sapiens) (UniProt P42336); assay: Inhibition of PI3Kalpha in human DOHH-2 cells assessed as decrease in AKT phosphorylation at 0.5 to 1 hrs measured by western blot analysis; format: cell-based; details: time 0.5-1 hrs
Chain of Phosphatidylinositol 4,5-bisphosphate 3-kinase catalytic subunit alpha isoform (Homo sapiens) (P42336 whole entry, canonical isoform): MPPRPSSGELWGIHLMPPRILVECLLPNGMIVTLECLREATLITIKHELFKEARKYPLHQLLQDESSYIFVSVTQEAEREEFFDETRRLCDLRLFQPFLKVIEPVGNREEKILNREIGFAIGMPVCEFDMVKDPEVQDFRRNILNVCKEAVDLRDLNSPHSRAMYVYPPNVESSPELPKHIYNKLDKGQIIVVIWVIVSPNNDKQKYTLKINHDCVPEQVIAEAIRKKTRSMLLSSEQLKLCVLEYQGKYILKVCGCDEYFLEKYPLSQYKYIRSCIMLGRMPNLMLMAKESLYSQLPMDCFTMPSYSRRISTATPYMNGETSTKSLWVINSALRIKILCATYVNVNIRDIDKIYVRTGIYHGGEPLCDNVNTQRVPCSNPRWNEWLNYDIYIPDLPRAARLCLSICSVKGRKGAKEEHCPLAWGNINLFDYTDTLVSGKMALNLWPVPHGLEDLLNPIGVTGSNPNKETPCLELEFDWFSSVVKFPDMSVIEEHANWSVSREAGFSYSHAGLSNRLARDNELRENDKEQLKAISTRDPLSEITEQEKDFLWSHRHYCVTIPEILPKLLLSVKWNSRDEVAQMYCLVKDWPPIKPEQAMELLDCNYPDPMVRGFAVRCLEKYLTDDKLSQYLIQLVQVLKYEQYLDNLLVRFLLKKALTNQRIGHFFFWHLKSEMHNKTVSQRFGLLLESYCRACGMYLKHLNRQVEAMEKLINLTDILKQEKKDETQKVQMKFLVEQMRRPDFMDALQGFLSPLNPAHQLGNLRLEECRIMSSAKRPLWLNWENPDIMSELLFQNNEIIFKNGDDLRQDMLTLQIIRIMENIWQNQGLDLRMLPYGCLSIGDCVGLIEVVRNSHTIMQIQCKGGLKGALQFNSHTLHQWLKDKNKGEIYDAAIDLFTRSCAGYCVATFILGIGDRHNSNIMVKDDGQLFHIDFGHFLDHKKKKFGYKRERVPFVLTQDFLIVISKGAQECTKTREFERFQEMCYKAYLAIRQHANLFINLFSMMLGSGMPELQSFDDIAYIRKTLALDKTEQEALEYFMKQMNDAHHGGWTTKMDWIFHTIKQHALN

[15] = tested on: WSUDLCL2; assay: Antiproliferative activity against human WSUDLCL2 cells measured after 4 days by Cell Titer Glo Luminescent Cell Viability Assay; format: functional, cell-based; details: WSUDLCL2, 96 h
[16] = biological target: T1, Histone deacetylase (Homo sapiens); assay: Inhibition of HDAC in human OCILY3 cells assessed as increase in Ac-p53 levels at 0.01 to 1 uM measured by Western blot analysis; format: cell-based; details: dose 0.01-1 µM
[17] = tested on: OCI-LY19; assay: Antiproliferative activity against human OCILY19 cells measured after 4 days by Cell Titer Glo Luminescent Cell Viability Assay; format: functional, cell-based; details: OCI-LY19, 96 h
[18] = tested on: KARPAS-422; assay: Antiproliferative activity against human KARPAS-422 cells measured after 4 days by Cell Titer Glo Luminescent Cell Viability Assay; format: functional, cell-based; details: KARPAS-422, 96 h
[19] = biological target: T1, Histone deacetylase (Homo sapiens); assay: Inhibition of HDAC in human OCILY3 cells assessed as decrease in p-S6 level at 0.5 to 12 hrs measured by Western blot analysis; format: cell-based; details: time 0.5-12 hrs
[20] = tested on: DOHH-2; assay: Induction of apoptosis in human DOHH-2 cells assessed as upregulation of cleaved-caspase3 at 0.01 to 1 uM measured by Western blot analysis; format: functional, cell-based; details: dose 0.01-1 µM
[21] = tested on: SUD4; assay: Antitumour activity against CM-Dil labeled human SU-DHL-4 cells xenografted in zebrafish embryo assessed as decrease in tumor growth at 3 uM measured by fluorescence based assay; format: functional, cell-based
[22] = tested on: WSU-NHL; assay: Antiproliferative activity against human WSU-NHL cells measured after 4 days by Cell Titer Glo Luminescent Cell Viability Assay; format: functional, cell-based; details: 96 h
[23] = biological target: T1, Histone deacetylase (Homo sapiens); assay: Inhibition of HDAC in human DOHH-2 cells assessed as decrease in p-S6 level at 0.5 to 12 hrs measured by Western blot analysis; format: cell-based; details: time 0.5-12 hrs
[24] = biological target: Phosphatidylinositol 4,5-bisphosphate 3-kinase catalytic subunit alpha isoform (Homo sapiens) (UniProt P42336); assay: Inhibition of PI3Kalpha in human OCILY3 cells assessed as decrease in AKT phosphorylation at 0.5 to 1 hrs measured by western blot analysis; format: cell-based; details: time 0.5-1 hrs
[25] = tested on: SU-DHL-5; assay: Antiproliferative activity against human SU-DHL-5 cells measured after 4 days by Cell Titer Glo Luminescent Cell Viability Assay; format: functional, cell-based; details: SU-DHL-5, 96 h
[26] = tested on: DOHH-2; assay: Induction of cell cycle arrest in human DOHH-2 cells assessed as accumulation at S phase at 0.01 to 1 uM measured by flow cytometry analysis; format: functional, cell-based; details: dose 0.01-1 µM, DDE = dose-dependent effect
[27] = biological target: T1, Histone deacetylase (Homo sapiens); assay: Inhibition of HDAC in human OCILY3 cells assessed as down-regulation of STAT3 phosphorylation at Y705 residue at 0.5 to 12 hrs measured by Western blot analysis; format: cell-based; details: time 0.5-12 hrs
[28] = biological target: T1, Histone deacetylase (Homo sapiens); assay: Inhibition of HDAC in human DOHH-2 cells assessed as increase in Ac-H3 levels at 0.01 to 1 uM measured by Western blot analysis; format: cell-based; details: dose 0.01-1 µM
[29] = biological target: Phosphatidylinositol 4,5-bisphosphate 3-kinase catalytic subunit alpha isoform (Homo sapiens) (UniProt P42336); assay: Inhibition of PI3Kalpha in human DOHH-2 cells assessed as decrease in AKT phosphorylation at 0.01 to 1 uM measured by western blot analysis; format: cell-based; details: dose 0.01-1 µM
[30] = Antiproliferative activity against human HBL1 cells measured after 4 days by Cell Titer Glo Luminescent Cell Viability Assay; format: functional, cell-based; details: HBL1, 96 h
[31] = biological target: T1, Histone deacetylase (Homo sapiens); assay: Inhibition of HDAC in human OCILY3 cells assessed as effect on pS6 levels at 0.01 to 1 uM measured by Western blot analysis; format: cell-based; details: dose 0.01-1 µM
[32] = biological target: T1, Histone deacetylase (Homo sapiens); assay: Inhibition of HDAC in human DOHH-2 cells assessed as Down-regulation of STAT3 phosphorylation at Y705 residue at 0.01 to 1 uM measured by Western blot analysis; format: cell-based; details: dose 0.01-1 µM
[33] = tested on: DOHH-2; assay: Antiproliferative activity against human DOHH-2 cells measured after 4 days by Cell Titer Glo Luminescent Cell Viability Assay; format: functional, cell-based; details: DOHH-2, 96 h
[34] = tested on: SU-DHL-8; assay: Antiproliferative activity against human SU-DHL-8 cells measured after 4 days by Cell Titer Glo Luminescent Cell Viability Assay; format: functional, cell-based; details: SU-DHL-8, 96 h
[35] = biological target: T1, Histone deacetylase (Homo sapiens); assay: Inhibition of HDAC in human OCILY3 cells assessed as […] level at 0.5 to 12 hrs measured by Western blot analysis; format: cell-based; details: time 0.5-12 hrs
[36] = tested on: OCI-Ly3; assay: Induction of apoptosis in human OCILY3 cells at 0.01 to 1 uM measured by flow cytometry analysis; format: functional, cell-based; details: dose 0.01-1 µM, DDE = dose-dependent effect
[37] = biological target: T1, Histone deacetylase (Homo sapiens); assay: Inhibition of HDAC in human DOHH-2 cells assessed as down-regulation of STAT3 phosphorylation at Y705 residue at 0.5 to 12 hrs measured by Western blot analysis; format: cell-based; details: time 0.5-12 hrs
[38] = tested on: SUD4; assay: Antiproliferative activity against human SU-DHL-4 cells measured after 4 days by Cell Titer Glo Luminescent Cell Viability Assay; format: functional, cell-based; details: SU-DHL-4, 96 h
[39] = biological target: T1, Histone deacetylase (Homo sapiens); assay: Inhibition of HDAC in human DOHH-2 cells assessed as increase in Ac-p53 levels at 0.01 to 1 uM measured by Western blot analysis; format: cell-based; details: dose 0.01-1 µM
[40] = tested on: Pfeiffer; assay: Antiproliferative activity against human Pfeiffer cells measured after 4 days by Cell Titer Glo Luminescent Cell Viability Assay; format: functional, cell-based; details: 96 h
[41] = biological target: T1, Histone deacetylase (Homo sapiens); assay: Inhibition of HDAC in human DOHH-2 cells assessed as effect on pS6 levels at 0.01 to 1 uM measured by Western blot analysis; format: cell-based; details: dose 0.01-1 µM
[42] = biological target: Phosphatidylinositol 4,5-bisphosphate 3-kinase catalytic subunit alpha isoform (Homo sapiens) (UniProt P42336); assay: Inhibition of PI3Kalpha in human OCILY3 cells assessed as decrease in AKT phosphorylation at Thr308 residue at 0.01 to 1 uM measured by western blot analysis; format: cell-based; details: dose 0.01-1 µM
[43] = tested on: SU-DHL10; assay: Antiproliferative activity against human SU-DHL-10 cells measured after 4 days by Cell Titer Glo Luminescent Cell Viability Assay; format: functional, cell-based; details: SU-DHL10, 96 h
[44] = biological target: T1, Histone deacetylase (Homo sapiens); assay: Inhibition of HDAC in human OCILY3 cells assessed as Down-regulation of STAT3 phosphorylation at Y705 residue at 0.01 to 1 uM measured by Western blot analysis; format: cell-based; details: dose 0.01-1 µM
[45] = tested on: OCI-Ly3; assay: Induction of apoptosis in human OCILY3 cells assessed as upregulation of cleaved-caspase3 at 0.01 to 1 uM measured by Western blot analysis; format: functional, cell-based; details: dose 0.01-1 µM
[46] = biological target: T1, Histone deacetylase (Homo sapiens); assay: Inhibition of HDAC in human OCILY3 cells assessed as increase in Ac-H3 levels at 0.01 to 1 uM measured by Western blot analysis; format: cell-based; details: dose 0.01-1 µM
[47] = biological target: T1, Histone deacetylase (Homo sapiens); assay: Inhibition of HDAC in human DOHH-2 cells assessed as […] level at 0.5 to 12 hrs measured by Western blot analysis; format: cell-based; details: time 0.5-12 hrs
[48] = biological target: Phosphatidylinositol 4,5-bisphosphate 3-kinase catalytic subunit alpha isoform (Homo sapiens) (UniProt P42336); assay: Inhibition of PI3Kalpha in human OCILY3 cells assessed as decrease in AKT phosphorylation at Ser473 residue at 0.01 to 1 uM measured by western blot analysis; format: cell-based; details: dose 0.01-1 µM
[49] = tested on: OCI-Ly3; assay: Antiproliferative activity against human OCILY3 cells measured after 4 days by Cell Titer Glo Luminescent Cell Viability Assay; format: functional, cell-based; details: OCI-Ly3, 96 h
[50] = tested on: OCI-Ly7; assay: Antiproliferative activity against human OCILY7 cells measured after 4 days by Cell Titer Glo Luminescent Cell Viability Assay; format: functional, cell-based; details: OCI-Ly7, 96 h
[51] = tested on: SU-DHL-6; assay: Antiproliferative activity against human SU-DHL-6 cells measured after 4 days by Cell Titer Glo Luminescent Cell Viability Assay; format: functional, cell-based; details: SU-DHL-6, 96 h
[52] = tested on: DOHH-2; assay: Induction of cell cycle arrest in human DOHH-2 cells assessed as accumulation at G2/M phase in presence of pictilisib measured by flow cytometry analysis; format: functional, cell-based

CS(=O)(=O)N1CCN(Cc2cc3nc(-c4cccc5[nH]ncc45)nc(N4CCOCC4)c3s2)CC1
Activity [1]: Active | inhibition [2]: Active | Activity [3]: Active | inhibition [4]: Active | inhibition [5]: Active | inhibition [6]: Active | Activity [7]: Active | Activity [8]: Active

COc1ccc(-c2cc(OCCN(C)c3ncc(C(=O)NO)cn3)c3ncnc(C)c3c2)cn1
IC50 [9]: 17.7 nM | Activity [10]: Active | Activity [11]: Dde | IC50 [12]: 5.6 nM | Activity [13]: Active | inhibition [14]: Active | IC50 [15]: 16 nM | inhibition [16]: Active | IC50 [17]: 19.2 nM | IC50 [18]: 21 nM | inhibition [19]: Active | Activity [20]: Active | Activity [21]: Active | IC50 [22]: 5.2 nM | inhibition [23]: Active | inhibition [24]: Active | IC50 [25]: 3.6 nM | Activity [26]: Dde | inhibition [27]: Active | inhibition [28]: Active | inhibition [29]: Active | IC50 [30]: 7.9 nM | inhibition [31]: Active | inhibition [32]: Active | IC50 [33]: 7.7 nM | IC50 [34]: 6.4 nM | inhibition [35]: Active | Activity [36]: Dde | inhibition [37]: Active | IC50 [38]: 7.6 nM | inhibition [39]: Active | IC50 [40]: 5.3 nM | inhibition [41]: Active | inhibition [42]: Active | IC50 [43]: 9.7 nM | inhibition [44]: Active | Activity [45]: Active | inhibition [46]: Active | inhibition [47]: Active | inhibition [48]: Active | IC50 [49]: 3.6 nM | IC50 [50]: 5.6 nM | IC50 [51]: 6.5 nM

O=C(CCCCCCC(=O)Nc1ccccc1)NO
Activity [1]: Active | Activity [52]: Active | Activity [3]: Active | Activity [7]: Active | Activity [8]: Active
